Experimental data as given in patent US6949522B2, “β-2′- or 3′-halonucleosides” (Pharmasset, Inc., priority 2001, dated 2005).

tested on: mitochondrial cytochrome C oxidase subunit II (COXII) gene; assay: not given; assay type: cell-based, human; conditions: COXII DNA normalized to rDNA, 2-ΔΔCt; HepG2, 10 μM, 7 days
Excerpt: The Q-RT-PCR technology was also used to evaluate potential mitochondrial γ-DNA polymerase inhibition by the compounds of the present invention in relevant human cells. […] Since active nucleoside compounds in the triphosphate form lack a 3′-OH, thereby stopping virus replication by chain termination, there is a concern that these nucleoside analogues are also substrates for the human DNA polymerase γ, resulting in inhibition of mitochondrial DNA replication and subsequently toxic side effects (11, 19). In an attempt to provide direct quantifiable data on mitochondrial DNA levels intracellular, a Q-PCR technology was designed and relative quantification of COXII DNA levels were calculated using the comparative Ct method. […] Also, in agreement with previous observations, no changes in normalized mitochondrial DNA levels were observed after FIAU and D4T treatment (6, 8, 23).
Low passage number HepG2 cells, obtained from American Tissue Culture Collection (ATCC, Manassas, Va.) were seeded at 5,000 cells/well in collagen-coated 96-well plates. Test compounds were added to the media to obtain a final concentration of 10 μM. On culture day 7, cellular nucleic acids were prepared by using commercially available columns (RNeasy 96 kit, Qiagen). […] The mitochondrial cytochrome C oxidase subunit II (COXII) gene and the β-actin or rRNA gene were amplified from 5 μL with a multiplex Q-PCR protocol using the suitable primers and probes for both target and reference (designed using the Primer Express software, Applied Biosystems); • for COXII. • sense primer 5′-[…]-3′ (Sequence 7); • probe 5′-TET-[…]-TAMRA-3′ (Sequence 8); and • antisense probe 5′-[…]-3′ (Sequence 9); • for exon 3 of β-actin (GenBank E01094): • sense primer 5′-[…]-3′ (Sequence 10); • probe 5′-6FAM-[…]-TAMRA-3′ (Sequnece 11); and • antisense probe 5′-[…]-3′ (Sequence 12).
The rRNA gene primers and probes were purchased from Applied Biosystems. Standard curves using 1-log diluted total HepG2 DNA were linear over more than 5 logs. In addition, efficiencies of target (COXII DNA) and reference (β-actin DNA or rRNA) amplification were approximately equal, because the slope of the ΔCt line (Ct β-actin minus Ct mitochondrial) was less than 0.1 (not shown). Since equal amplification efficiencies were obtained for both genes, the comparative cycle threshold (Ct) method was used to investigate potential inhibition of the mitochondrial DNA polymerase γ. The comparative Ct method uses arithmetic formulas in which the amount of target (COXII gene) is normalized to an endogenous reference (β-actin gene or rRNA gene) and is relative to a calibrator (no drug control at day 7). The arithmetic formula for this approach is given by 2-ΔΔCt (User bulletin # 2, Applied Biosystems).
In order to study the consequences of possible inhibitory effects of these compounds on host DNA polymerases, nuclear and rnitochondrial DNA levels were quantified and compared to no-treatment controls. Cells were incubated for 7 days with 10 μM of each compound, followed by total nucleic acid extractions and multiplex Q-PCR of the rRNA gene and the mitochondrial COXII gene. Nucleic acids from cells exposed to the control compounds were also amplified in multiplex for mitDNA and the β-actin gene. The results are presented in Table 4 using the comparative Ct method.

SMILES | COXIINrDNA (range) relative to control
Nc1ccn([C@@H]2CS[C@H](CO)O2)c(=O)n1 [Compound 3TC, (−)-β-2′,3′-dideoxy-3′-thiacytidine, reference compound] | 1.31 (0.92-1.88)
Nc1ccn([C@@H]2C=C(F)[C@H](CO)O2)c(=O)n1 [Compound 10, 1-(2,3-Dideoxy-3-fluoro-β-L-glycero-pent-2-eno-furanosyl)cytosine] | 1.16 (0.81-1.64)
Nc1ccn([C@@H]2C=C(F)[C@H](CO)O2)c(=O)n1 [Compound 23, 1-(2,3-Didcoxy-3-fluoro-β-L-glycero-pent-2-eno-furanosyl)cytosine] | 0.78 (0.59-1.04)
Nc1ccn([C@@H]2S[C@H](CO)C=C2F)c(=O)n1 [Compound D-17, (−)-1-[(1S,4R)-2,3-dideoxy-2,3-didehydro-2-fluoro4-thio-β-D-ribofuranosyl]-cytosine] | 1.94 (1.31-2.87)
Nc1nc(=O)n([C@@H]2S[C@H](CO)C=C2F)cc1F [Compound D-18, (−)-1-[(1S,4R)-2,3-dideoxy-2,3-didehydro-2-fluoro-4-thio-β-D-ribofuranosyl]-5-fluorocytosine] | 0.96 (0.78-1.17)
Nc1ccn([C@H]2S[C@@H](CO)C=C2F)c(=O)n1 [Compound L-17, (+)-1-[(1S,4R)-2,3-dideoxy-2,3-didehydro-2-fluoro-4-thio-β-L-ribofuranosyl]-cytosine] | 1.46 (0.87-2.47)
Nc1nc(=O)n([C@H]2S[C@@H](CO)C=C2F)cc1F [Compound L-18, (+)-1-[(1S,4R)-2,3-dideoxy-2,3-didehydro-2-fluoro-4-thio-β-L-ribofuranosyl]-5-fluoro-cytosine] | 1.12 (0.76-1.64)

same assay, conditions: COXII DNA normalized to β-actin DNA, 2-ΔΔCt; HepG2, 10 μM, 7 days

SMILES | COXIINβ-actin DNA (range) relative to control
Nc1ccn([C@@H]2CS[C@H](CO)O2)c(=O)n1 [Compound 3TC, (−)-β-2′,3′-dideoxy-3′-thiacytidine, reference compound] | 1.02 (0.75-1.37)

same assay, conditions: HepG2, 10 μM, 7 days

SMILES | Average ΔCt ± SD COXII DNA | Average ΔΔCt ± SD COXII-rDNA | Average ΔΔCt ± SD COXII-β-actin
Cc1cn([C@H]2C[C@H](N=[N+]=[N-])[C@@H](CO)O2)c(=O)[nH]c1=O [AZT, 3′-azido-3′-deoxythymidine, reference compound] | 0.25 ± 0.13 | −0.61 ± 0.56 | 0.16 ± 0.44
Nc1ccn([C@@H]2CS[C@H](CO)O2)c(=O)n1 [Compound 3TC, (−)-β-2′,3′-dideoxy-3′-thiacytidine, reference compound] | 0.08 ± 0.33 | −0.39 ± 0.50 | −0.02 ± 0.43
Nc1ccn([C@@H]2C=C(F)[C@H](CO)O2)c(=O)n1 [Compound 10, 1-(2,3-Dideoxy-3-fluoro-β-L-glycero-pent-2-eno-furanosyl)cytosine] | −0.29 ± 0.19 | −0.21 ± 0.51 | 
Nc1ccn([C@@H]2C=C(F)[C@H](CO)O2)c(=O)n1 [Compound 23, 1-(2,3-Didcoxy-3-fluoro-β-L-glycero-pent-2-eno-furanosyl)cytosine] | −0.16 ± 0.17 | 0.36 ± 0.41 | 
Nc1ccn([C@@H]2S[C@H](CO)C=C2F)c(=O)n1 [Compound D-17, (−)-1-[(1S,4R)-2,3-dideoxy-2,3-didehydro-2-fluoro4-thio-β-D-ribofuranosyl]-cytosine] | −0.14 ± 0.10 | −0.96 ± 0.56 | 
Nc1nc(=O)n([C@@H]2S[C@H](CO)C=C2F)cc1F [Compound D-18, (−)-1-[(1S,4R)-2,3-dideoxy-2,3-didehydro-2-fluoro-4-thio-β-D-ribofuranosyl]-5-fluorocytosine] | −0.39 ± 0.43 | 0.06 ± 0.29 | 
Nc1ccn([C@H]2S[C@@H](CO)C=C2F)c(=O)n1 [Compound L-17, (+)-1-[(1S,4R)-2,3-dideoxy-2,3-didehydro-2-fluoro-4-thio-β-L-ribofuranosyl]-cytosine] | −0.05 ± 0.16 | −0.55 ± 0.75 | 
Nc1nc(=O)n([C@H]2S[C@@H](CO)C=C2F)cc1F [Compound L-18, (+)-1-[(1S,4R)-2,3-dideoxy-2,3-didehydro-2-fluoro-4-thio-β-L-ribofuranosyl]-5-fluoro-cytosine] | −0.06 ± 0.24 | −0.16 ± 0.56 | 

tested on: not listed separately; assay: in vitro; conditions: human
Method: After a three day-incubation for HepG2, or 5 days for human PBM cells, cell viability and mitochondrial activity were measured in a colorimetric assay using the MTS- or MTT dye method (Promega, Madison, Wis.).

SMILES | IC50 at 3 days
Cc1cn([C@H]2C[C@H](N=[N+]=[N-])[C@@H](CO)O2)c(=O)[nH]c1=O [AZT, 3′-azido-3′-deoxythymidine, reference compound] | > 100000 nM
Nc1ccn([C@@H]2CS[C@H](CO)O2)c(=O)n1 [Compound 3TC, (−)-β-2′,3′-dideoxy-3′-thiacytidine, reference compound] | > 100000 nM
Nc1ccn([C@@H]2C=C(F)[C@H](CO)O2)c(=O)n1 [Compound 10, 1-(2,3-Dideoxy-3-fluoro-β-L-glycero-pent-2-eno-furanosyl)cytosine] | > 100000 nM

tested on: HIV-1 xxBRU (wild type); assay: HIV-1 Q-RT-PCR assay in human PBM cells, strain xxBRU; assay type: cell-based; conditions: 5 days, viral RNA reduced by 90%
Method: Human PBM cells (1×10^6 cells/T25 flask) were PHA stimulated for 2 or 3 days, and infected with either a wild type (LAI and xxBRU) or a 3TC-resistant (xxBRU 184V) HIV-1 strain at 100 TCID50, as previously described (27). The culture was kept for 5 days in presence of test compounds at serial 1-log dilutions. Subsequently, human PBM cells were removed from the culture supernatant by centrifugation (10 minutes, 400×g, 4° C.). This clarified supernatant was tested either in the RT-assay, or in the Q-RT-PCR assay.
Viral RNA present in the culture supernatant was prepared using commercially available columns (QIAamp Viral RNA mini Kit, Qiagen, Valencia, Calif.). Viral RNA was detected in real-time by monitoring increases in fluorescence signal that resulted from degradation of a quenched fluorescent probe molecule following the hybridization of the probe to the arnplified viral DNA (TaqMan 7700 chemistry, Applied Biosystems, Foster City, Calif.). The TaqMan probe and primers were designed using the Primer Express software (Applied Biosystems); they cover highly conserved sequences complementary to an 81 base pair long fragment from the HIV-1 RT gene between codon 230 and 257 of the group MHIV-1 genome; • probe 5′-6FAM-[…]-TAMRA-3′ (Sequence 1) • sense primer: 5′-[…]-3′ (Sequence 2); and • antisense primer 5′-[…]-3′ (Sequence 3).
A total of 5 μL RNA was RT-amplified using reagents and conditions as described by the manufacturer (Applied Biosystems). […] Copy numbers were calibrated using the Roche Amplicor HIV-1 Monitor test™ (Roche Diagnostics, Branchburg, N.J.) on a 1-log dilution series of a clinical HIV-1 genotype B isolate (attenuated in vitro to obtain a high viral load). The 10-6 diluted sample became positive at threshold cycle (Ct=PCR cycle threshold where a sample becomes detectable)=35.52, which corresponded to 1,410 copies/mL in the Roche monitor HIV-1 version II assay. When validated over a dynamic range of 3 logs of virus, there was excellent correlation (r2˜1) between the two methodologies. […] Therefore, the currently designed primer and probe set allowed reliable quantification of both clinical samples and HIV-1 in vitro preparations.
HIV-1 present in culture supernatant fluids was quantified by two different methodologies: i) the Q-RT-PCR with read-out in log copies/mL; and ii) the endogenous viral RT assay on cell supernatant with read-out in log counts per minute/mL (CPM/mL). Upon addition of antiviral compounds to the culture media, a dose-related decrease in virus production was observed. Although the two methodologies measured different parameters (viral RNA versus active RT enzyme), results were not markedly different from each other. The HIV-1 Q-RT-PCR results were compared with a previously established cell-based antiviral drug evaluation assay (endogenous HIV-1 RT polymerization activity in cell supematant)(27).

SMILES | EC90
Nc1ccn([C@@H]2C=C(F)[C@H](CO)O2)c(=O)n1 [Compound 23, 1-(2,3-Didcoxy-3-fluoro-β-L-glycero-pent-2-eno-furanosyl)cytosine] | 600 nM
Nc1ccn([C@@H]2S[C@H](CO)C=C2F)c(=O)n1 [Compound D-17, (−)-1-[(1S,4R)-2,3-dideoxy-2,3-didehydro-2-fluoro4-thio-β-D-ribofuranosyl]-cytosine] | 5200 nM
Nc1nc(=O)n([C@@H]2S[C@H](CO)C=C2F)cc1F [Compound D-18, (−)-1-[(1S,4R)-2,3-dideoxy-2,3-didehydro-2-fluoro-4-thio-β-D-ribofuranosyl]-5-fluorocytosine] | 73900 nM
Nc1ccn([C@H]2S[C@@H](CO)C=C2F)c(=O)n1 [Compound L-17, (+)-1-[(1S,4R)-2,3-dideoxy-2,3-didehydro-2-fluoro-4-thio-β-L-ribofuranosyl]-cytosine] | 2100 nM
Nc1nc(=O)n([C@H]2S[C@@H](CO)C=C2F)cc1F [Compound L-18, (+)-1-[(1S,4R)-2,3-dideoxy-2,3-didehydro-2-fluoro-4-thio-β-L-ribofuranosyl]-5-fluoro-cytosine] | 940 nM

same assay, conditions: Human immunodeficiency virus 1, PBMC, 120 h, 5 days, viral RNA reduced by 90%

SMILES | EC90
Cc1cn([C@H]2C[C@H](N=[N+]=[N-])[C@@H](CO)O2)c(=O)[nH]c1=O [AZT, 3′-azido-3′-deoxythymidine, reference compound] | 10 nM
Nc1ccn([C@@H]2CS[C@H](CO)O2)c(=O)n1 [Compound 3TC, (−)-β-2′,3′-dideoxy-3′-thiacytidine, reference compound] | 60 nM
Nc1ccn([C@@H]2C=C(F)[C@H](CO)O2)c(=O)n1 [Compound 10, 1-(2,3-Dideoxy-3-fluoro-β-L-glycero-pent-2-eno-furanosyl)cytosine] | 35400 nM
